Measured values published in ChEMBL document CHEMBL1144064, “Biological evaluation of proanthocyanidin dimers and related polyphenols” (J Nat Prod, 1999).
In brackets after ≈: the same amount, converted by molar mass. Activity calls are given as the source filed them. The calls are words filed in the database; no cut-off is given here.

What was measured:
Salmonella paratyphi = test: Antimicrobial activity against Salmonella paratyphi; format: functional, Salmonella enterica subsp. enterica serovar Paratyphi A; settings: Salmonella enterica
[1] = Antioxidant activity assessed as superoxide radical anion scavenging activity; format: functional
Streptococcus pyogenes = test: Antimicrobial activity against Streptococcus pyogenes; format: functional
[2] = Modulation of classical complement pathway system assessed as hemoglobin release by spectrophotometry
Candida albicans = test: Antimicrobial activity against Candida albicans; format: functional
[3] = Cytotoxicity against human MT4 cells by MTT assay; format: cell-based
Enterobacter cloacae = test: Antimicrobial activity against Enterobacter cloacae; format: functional
Simplexvirus = test: Antiviral activity against HSV up to 200 ug/mL by extracellular virucidal assay; format: functional, organism-based
[4] = system: Human immunodeficiency virus; test: Antiviral activity against HIV infected in human MT4 cells assessed as inhibition of virus-induced cytopathic effect by MTT assay; format: functional, organism-based; settings: Human immunodeficiency virus 1, MT4
Staphylococcus aureus = test: Antimicrobial activity against Staphylococcus aureus; format: functional
[5] = system: Mycolicibacterium fortuitum; test: Antimicrobial activity against Mycobacterium fortuitum; format: functional
[6] = Modulation of alternative complement pathway system assessed as hemoglobin release by spectrophotometry
Escherichia coli = test: Antimicrobial activity against Escherichia coli; format: functional
[7] = Selectivity index, ratio of CC50 for human MT4 cells to IC50 for HIV infected in human MT4 cells; format: functional
Pseudomonas aeruginosa = test: Antimicrobial activity against Pseudomonas aeruginosa; format: functional

| Compound | MBC (Salmonella paratyphi) [µg/mL] | MIC (Salmonella paratyphi) [µg/mL] | IC50 [1] [µM] | IC50 [2] [µM] | MBC (Candida albicans) [µg/mL] | MIC (Candida albicans) [µg/mL] | CC50 [3] [µg/mL] | MBC (Enterobacter cloacae) [µg/mL] | MIC (Enterobacter cloacae) [µg/mL] | IC50 [4] [µg/mL] | MBC (Staphylococcus aureus) [µg/mL] | MIC (Staphylococcus aureus) [µg/mL] | MBC [5] [µg/mL] | MIC [5] [µg/mL] | Activity [6] | MBC (Escherichia coli) [µg/mL] | MIC (Escherichia coli) [µg/mL] | Ratio CC50/IC50 [7] | MBC (Pseudomonas aeruginosa) [µg/mL] | MIC (Pseudomonas aeruginosa) [µg/mL] | also measured |
| --- | --- | --- | --- | --- | --- | --- | --- | --- | --- | --- | --- | --- | --- | --- | --- | --- | --- | --- | --- | --- | --- |
| Oc1cc(O)c2c(c1)O[C@H](c1ccc(O)c(O)c1)[C@@H](O)[C@@H]2c1c(O)cc(O)c2c1O[C@H](c1ccc(O)c(O)c1)[C@H](O)C2 | > 100 | > 100 | 30 | 45.5 | > 100 | > 100 | 0.3 (≈ 0.519 µM) | > 100 | > 100 | > 0.3 | > 100 | > 100 | > 100 | > 100 | inactive | > 100 | > 100 | <1 | > 100 | > 100 | MBC (Streptococcus pyogenes): 50 µg/mL (≈ 86.4 µM); MIC (Streptococcus pyogenes): 25 µg/mL (≈ 43.2 µM); Activity (Simplexvirus): inactive |
| Oc1cc(O)c2c(c1)O[C@H](c1ccc(O)c(O)c1)[C@@H](O)[C@@H]2c1c(O)cc2c(c1O)C[C@@H](O)[C@@H](c1ccc(O)c(O)c1)O2 | > 100 | > 100 | 32.9 | 19.7 | > 100 | > 100 | 127 (≈ 219 µM) | > 100 | > 100 | 19.6 (≈ 33.9 µM) | > 100 | > 100 | > 100 | > 100 | – | > 100 | > 100 | 8 | > 100 | > 100 | Activity (Simplexvirus): inactive; IC50 [6]: 83.7 µM |
| Oc1cc(O)c2c(c1)O[C@H](c1cc(O)c(Oc3cc(O)c4c(c3)O[C@H](c3cc(O)c(O)c(O)c3)[C@H](O)C4)c(O)c1)[C@@H](O)C2 | > 100 | > 100 | 2 | 14.6 | > 100 | > 100 | – | > 100 | > 100 | – | > 100 | > 100 | > 100 | > 100 | – | > 100 | > 100 | – | > 100 | > 100 | IC50 [6]: 86 µM |
| Oc1cc(O)c2c(c1)O[C@H](c1ccc(O)c(O)c1)[C@@H](O)[C@@H]2c1c(O)cc(O)c2c1O[C@H](c1ccc(O)c(O)c1)[C@@H](O)C2 | > 100 | > 100 | 41.3 | 37.7 | > 100 | > 100 | 118 (≈ 204 µM) | > 100 | > 100 | 27 (≈ 46.7 µM) | > 100 | > 100 | > 100 | > 100 | inactive | > 100 | > 100 | 5 | > 100 | > 100 | Activity (Simplexvirus): inactive |
| Oc1cc(O)c2c(c1)O[C@H](c1ccc(O)c(O)c1)[C@@H](O)[C@@H]2c1c(O)cc2c(c1O)C[C@H](O)[C@@H](c1ccc(O)c(O)c1)O2 | > 100 | > 100 | 27.3 | 18.5 | > 100 | > 100 | 141 (≈ 244 µM) | > 100 | > 100 | 29.9 (≈ 51.7 µM) | > 100 | > 100 | > 100 | > 100 | inactive | > 100 | > 100 | 5 | > 100 | > 100 | MBC (Streptococcus pyogenes): 100 µg/mL (≈ 173 µM); MIC (Streptococcus pyogenes): 100 µg/mL (≈ 173 µM); Activity (Simplexvirus): inactive |
| Oc1cc(O)c2c(c1)O[C@H](c1ccc(O)c(O)c1)[C@H](O)[C@H]2c1c(O)cc2c(c1O)C[C@@H](O)[C@@H](c1ccc(O)c(O)c1)O2 | > 100 | > 100 | 11.4 | 51.7 | > 100 | > 100 | 53.5 (≈ 92.5 µM) | > 100 | > 100 | 8.3 (≈ 14.3 µM) | > 100 | > 100 | > 100 | > 100 | inactive | > 100 | > 100 | 9 | > 100 | > 100 | MBC (Streptococcus pyogenes): 100 µg/mL (≈ 173 µM); MIC (Streptococcus pyogenes): 100 µg/mL (≈ 173 µM); Activity (Simplexvirus): inactive |
| O=C1c2c(O)cc(O)cc2O[C@H](c2ccc(O)c(O)c2)[C@H]1O [(+)-TAXIFOLIN] | > 100 | > 100 | 24.2 | 850 | > 100 | > 100 | 25.4 (≈ 83.5 µM) | > 100 | > 100 | > 25.4 | > 100 | > 100 | > 100 | > 100 | inactive | > 100 | > 100 | <1 | > 100 | > 100 | Activity (Simplexvirus): inactive |
| Oc1cc(O)c2c(c1)O[C@H](c1ccc(O)c(O)c1)[C@H](O)C2 [(-)-EPICATECHIN] | > 100 | > 100 | 18.3 | 656 | > 100 | > 100 | 136 (≈ 469 µM) | > 100 | > 100 | 34.1 (≈ 117 µM) | > 100 | > 100 | > 100 | > 100 | inactive | > 100 | > 100 | 4 | > 100 | > 100 | – |
| Oc1cc(O)c2c(c1)O[C@H](c1ccc(O)c(O)c1)[C@@H](O)C2 [CIANIDANOL] | > 100 | > 100 | 13.1 | 647 | > 100 | > 100 | 86.8 (≈ 299 µM) | > 100 | > 100 | > 86.8 | > 100 | > 100 | > 100 | > 100 | inactive | > 100 | > 100 | <1 | > 100 | > 100 | – |
| Oc1cc(O)c2c(c1)O[C@H](c1ccc(O)c(O)c1)[C@H](O)[C@H]2c1c(O)cc(O)c2c1O[C@H](c1ccc(O)c(O)c1)[C@@H](O)C2 [PROCYANIDIN B1] | > 100 | > 100 | – | 31.3 | > 100 | > 100 | – | > 100 | > 100 | – | > 100 | > 100 | > 100 | > 100 | – | > 100 | > 100 | – | > 100 | > 100 | IC50 [6]: 72 µM |
| O=C(/C=C/c1ccc(O)c(O)c1)O[C@H](Cc1ccc(O)c(O)c1)C(=O)O [ROSMARINIC ACID] | – | – | – | 21.9 | – | – | – | – | – | – | – | – | – | – | – | – | – | – | – | – | IC50 [6]: 408 µM |
| Cc1cn([C@H]2C[C@H](N=[N+]=[N-])[C@@H](CO)O2)c(=O)[nH]c1=O [ZIDOVUDINE] | – | – | – | – | – | – | 2.58 (≈ 9.66 µM) | – | – | 0.0002 (≈ 0.000748 µM) | – | – | – | – | – | – | – | – | – | – | – |
